# Measurements: US10399940B2, “Substituted pyrrolidines and methods of use” (AbbVie S.à.r.l., priority 2016, dated 2019)
# Like-named read-outs stand apart in the source and are kept apart here.
# Molecular target: T1, F508delCFTR (Homo sapiens, UniProt P13569, DEL508-508)
# T1 construct: expressed in transfected cells; host or cells: CFBE41o- (human lung derived epithelial cell line), doxycycline-inducible expression
# Test: Cell Surface Expression-Horse Radish Peroxidase (CSE-HRP) assay
# Format: cell-based
# Conditions: CFBE41o-F508delCFTR-HRP cells; for Maximum % activity (with co-corrector): with co-corrector (2 μM); for Maximum % activity (with co-corrector) / Maximum % activity (without co-corrector): normalized to on-plate positive control, highest concentration 20 μM
# Protocol: Cell Surface Expression-Horse Radish Peroxidase (CSE-HRP) Assay
# A cellular assay for measuring the F508delCFTR cell surface expression after correction with test compounds either without or with a co-corrector (2 μM of 3-[(2R,4R)-4-({[1-(2,2-difluoro-1,3-benzodioxol-5-yl)cyclopropyl]carbonyl}amino)-7-methoxy-3,4-dihydro-2H-chromen-2-yl]benzoic acid), was developed in human lung derived epithelial cell line (CFBE41o-) (Veit G et al, (2012) Mol Biol Cell. 23(21): 4188-4202). The development was achieved by expressing the F508delCFTR mutation along with a horseradish peroxidase (HRP) in the fourth exofacial loop, and then measuring the HRP activity using luminescence readout from these cells, CFBE41o-F508delCFTR-HRP, that were incubated overnight with the test corrector compounds, either without or with the co-corrector. For this primary assay, the CFBE41o-F508delCFTR-HRP cells were plated in 384-well plates (Greiner Bio-one; Cat 781080) at 4,000 cells/well along with 0.5 μg/mL doxycycline to induce the F508delCFTR-HRP expression and further incubated at 37° C., 5% CO2 for 72 hours. The test compounds were then added either without or with a co-corrector at the required concentrations and further incubated for 18-24 hours at 33° C. The highest concentration tested was 20 μM with an 8-point concentration response curve using a 3-fold dilution in both the test compound without or with the co-corrector. Three replicate plates were run to determine one EC50. All plates contained negative controls (dimethyl sulfoxide, DMSO) and positive control (2 μM of 3-[(2R,4R)-4-({[1-(2,2-difluoro-1,3-benzodioxol-5-yl)cyclopropyl]carbonyl}amino)-7-methoxy-3,4-dihydro-2H-chromen-2-yl]benzoic acid) as well as on-plate concentration response of the positive control. Post incubation, the plates were washed 5× times with Dulbecco's phosphate buffered saline (DPBS), followed by the addition of the HRP substrate, luminol (50 μL), and measuring the HRP activity using luminescence readout on EnVision® Multilabel Plate Reader (Perkin Elmer; product number 2104-0010). The raw counts from the experiment were analyzed using Accelrys® Assay Explorer v3.3.
# Z′ greater than 0.5 was used as passing quality control criteria for the plates.
# The Z′ is defined as: 1−[3*SDPositive Control+3*SDNegative Control/Absolute(MeanPositive Control−MeanNegative Control)] wherein “SD” is standard deviation.
# The % activity measured at each of the 8 test concentrations of the test compound added either without or with a co-corrector (2 μM of 3-[(2R,4R)-4-({[1-(2,2-difluoro-1,3-benzodioxol-5-yl)cyclopropyl]carbonyl}amino)-7-methoxy-3,4-dihydro-2H-chromen-2-yl]benzoic acid) was normalized to the on-plate positive control using the following formulae: % activity(Test compound without co-corrector)=[(test compound without co-corrector response−DMSO response)/(positive control response−DMSO response)]*100 % activity(Test compound with co-corrector)=[(test compound with co-corrector response−DMSO response)/(positive control response−DMSO response)]*100
# The maximum % activity achieved for the test compound either without or with a co-corrector at any tested concentration is presented in Table 1 along with the respective EC50's calculated using the following general sigmoidal curve with variable Hill slope equation (described as Model 42 in the Accelrys® Assay Explorer v3.3 software): y=(a−d)/(1+(x/c)^b)+d
# General sigmoidal curve with concentration, response, top, bottom, EC50 and Hill slope. This model describes a sigmoidal curve with an adjustable baseline, a. The equation can be used to fit curves where response is either increasing or decreasing with respect to the independent variable, “x”. • “x” is a concentration of drug under test. • “y” is the response. • “a” is the maximum response, and “d” is the minimum response • “c” is the inflection point (EC50) for the curve. That is, “y” is halfway between the lower and upper asymptotes when x=c. “b” is the slope-factor or Hill coefficient. […]
# [1] = test compound without co-corrector, 18-24 hours at 33° C., read-out: EC50 (without co-corrector)
# [2] = with co-corrector (2 μM of 3-[(2R,4R)-4-({[1-(2,2-difluoro-1,3-benzodioxol-5-yl)cyclopropyl]carbonyl}amino)-7-methoxy-3,4-dihydro-2H-chromen-2-yl]benzoic acid), read-out: EC50 (with co-corrector)
# T1 sequence (P13569 with tags, fused parts or gaps DEL508-508): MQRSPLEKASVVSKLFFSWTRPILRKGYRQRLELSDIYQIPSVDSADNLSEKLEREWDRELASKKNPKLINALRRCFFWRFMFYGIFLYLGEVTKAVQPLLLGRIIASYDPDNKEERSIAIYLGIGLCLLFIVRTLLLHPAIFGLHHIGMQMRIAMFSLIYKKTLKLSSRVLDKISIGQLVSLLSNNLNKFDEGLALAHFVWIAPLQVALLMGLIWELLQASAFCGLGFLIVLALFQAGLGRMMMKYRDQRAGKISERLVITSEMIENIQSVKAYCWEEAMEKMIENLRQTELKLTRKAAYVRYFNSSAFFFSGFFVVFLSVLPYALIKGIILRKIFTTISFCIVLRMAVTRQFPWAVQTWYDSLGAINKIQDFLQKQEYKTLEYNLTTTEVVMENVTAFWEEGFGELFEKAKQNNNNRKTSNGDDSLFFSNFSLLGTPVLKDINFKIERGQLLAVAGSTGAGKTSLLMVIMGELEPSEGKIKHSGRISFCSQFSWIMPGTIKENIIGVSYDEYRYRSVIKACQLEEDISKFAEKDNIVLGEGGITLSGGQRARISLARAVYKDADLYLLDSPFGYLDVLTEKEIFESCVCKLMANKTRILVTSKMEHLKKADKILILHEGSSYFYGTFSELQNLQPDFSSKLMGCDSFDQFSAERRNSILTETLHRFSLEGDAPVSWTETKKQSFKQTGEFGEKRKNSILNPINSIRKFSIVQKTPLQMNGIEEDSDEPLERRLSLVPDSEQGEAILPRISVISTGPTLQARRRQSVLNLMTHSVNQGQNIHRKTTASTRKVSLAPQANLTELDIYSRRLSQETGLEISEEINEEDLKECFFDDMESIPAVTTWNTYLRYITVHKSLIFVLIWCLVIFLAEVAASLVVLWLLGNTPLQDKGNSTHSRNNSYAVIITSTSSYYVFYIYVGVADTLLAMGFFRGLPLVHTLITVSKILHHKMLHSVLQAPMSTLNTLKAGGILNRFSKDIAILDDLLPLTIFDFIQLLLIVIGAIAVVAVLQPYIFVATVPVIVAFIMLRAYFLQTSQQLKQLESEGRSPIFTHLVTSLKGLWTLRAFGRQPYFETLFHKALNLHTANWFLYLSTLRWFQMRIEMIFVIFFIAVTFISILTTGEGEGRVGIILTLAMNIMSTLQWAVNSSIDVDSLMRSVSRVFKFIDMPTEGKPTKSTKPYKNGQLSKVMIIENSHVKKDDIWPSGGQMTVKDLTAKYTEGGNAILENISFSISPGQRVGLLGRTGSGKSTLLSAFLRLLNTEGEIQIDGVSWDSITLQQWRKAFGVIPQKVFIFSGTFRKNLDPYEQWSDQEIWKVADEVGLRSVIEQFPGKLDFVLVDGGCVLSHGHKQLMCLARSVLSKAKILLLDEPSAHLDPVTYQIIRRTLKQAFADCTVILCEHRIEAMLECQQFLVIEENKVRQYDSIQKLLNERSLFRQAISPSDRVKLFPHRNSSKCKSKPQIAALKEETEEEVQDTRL
SMILES,EC50 [1],EC50 [2],Maximum % activity (with co-corrector),Maximum % activity (without co-corrector)
"COc1ccc(C(F)(F)F)cc1CO[C@H]1[C@H](C(C)(C)C)[C@@H](C(=O)NS(=O)(=O)C2(C)CC2)N(C(=O)C2CCCCC2)[C@H]1c1ccccc1 [Example 22, (2S,3R,4S,5S)-3-tert-butyl-1-(cyclohexanecarbonyl)-4-{[2-methoxy-5-(trifluoromethyl)phenyl]methoxy}-N-(1-methylcyclopropane-1-sulfonyl)-5-phenylpyrrolidine-2-carboxamide]",> 10 µM,> 10 µM,+ (<150),+ (<100)
"COc1ccc(C(F)(F)F)cc1CO[C@H]1[C@H](C(C)(C)C)[C@@H](C(=O)NS(=O)(=O)C2CC2)N(C(=O)C2CCCCC2)[C@H]1c1ccccc1 [Example 23, (2S,3R,4S,5S)-3-tert-butyl-1-(cyclohexanecarbonyl)-N-(cyclopropanesulfonyl)-4-{[2-methoxy-5-(trifluoromethyl)phenyl]methoxy}-5-phenylpyrrolidine-2-carboxamide]",> 10 µM,1 to 10 µM,++ (≥150 and <350),+ (<100)
"CCS(=O)(=O)NC(=O)[C@@H]1[C@@H](C(C)(C)C)[C@H](OCc2cc(C(F)(F)F)ccc2OC)[C@H](c2ccccc2)N1C(=O)C1CCCCC1 [Example 24, (2S,3R,4S,5S)-3-tert-butyl-1-(cyclohexanecarbonyl)-N-(ethanesulfonyl)-4-{[2-methoxy-5-(trifluoromethyl)phenyl]methoxy}-5-phenylpyrrolidine-2-carboxamide]",> 10 µM,1 to 10 µM,++ (≥150 and <350),+ (<100)
"COc1ccc(C(F)(F)F)cc1CO[C@H]1[C@H](C(C)(C)C)[C@@H](C(=O)NS(=O)(=O)N(C)C)N(C(=O)C2CCCCC2)[C@H]1c1ccccc1 [Example 25, (2S,3R,4S,5S)-3-tert-butyl-1-(cyclohexanecarbonyl)-N-(dimethylsulfamoyl)-4-{[2-methoxy-5-(trifluoromethyl)phenyl]methoxy}-5-phenylpyrrolidine-2-carboxamide]",> 10 µM,1 to 10 µM,++ (≥150 and <350),+ (<100)
"COc1ccc(C(F)(F)F)cc1CO[C@H]1[C@H](C(C)(C)C)[C@@H](C(=O)NS(C)(=O)=O)N(C(=O)C2CCCCC2)[C@H]1c1ccccc1 [Example 26, (2S,3R,4S,5S)-3-tert-butyl-1-(cyclohexanecarbonyl)-N-(methanesulfonyl)-4-{[2-methoxy-5-(trifluoromethyl)phenyl]methoxy}-5-phenylpyrrolidine-2-carboxamide]",1 to 10 µM,1 to 10 µM,++ (≥150 and <350),+ (<100)
"COc1ccc(C(F)(F)F)cc1CO[C@@H]1[C@@H](C(C)(C)C)[C@H](C(=O)O)N(C(=O)[C@H]2CCC[C@H](OC)C2)[C@@H]1c1ccccc1 [Example 27, (2R,3S,4R,5R)-3-tert-butyl-1-[(1S,3S)-3-methoxycyclohexane-1-carbonyl]-4-{[2-methoxy-5-(trifluoromethyl)phenyl]methoxy}-5-phenylpyrrolidine-2-carboxylic acid]",1 to 10 µM,< 1 µM,+++ (≥350),++ (≥100 and <200)
"CO[C@H]1CCC[C@H](C(=O)N2[C@H](c3ccccc3)[C@H](Oc3cc(C(F)(F)F)cc(C)n3)[C@@H](C(C)(C)C)[C@@H]2C(=O)O)C1 [Example 28, (2R,3S,4R,5R)-3-tert-butyl-1-[(1S,3S)-3-methoxycyclohexane-1-carbonyl]-4-{[6-methyl-4-(trifluoromethyl)pyridin-2-yl]oxy}-5-phenylpyrrolidine-2-carboxylic acid]",1 to 10 µM,1 to 10 µM,+++ (≥350),++ (≥100 and <200)
"COc1ccc(C(F)(F)F)cc1CO[C@H]1[C@H](C(C)(C)C)[C@@H](C(=O)O)N(C(=O)[C@H]2CCC[C@H](OC)C2)[C@H]1c1ccccc1 [Example 30, (2S,3R,4S,5S)-3-tert-butyl-1-[(1S,3S)-3-methoxycyclohexane-1-carbonyl]-4-{[2-methoxy-5-(trifluoromethyl)phenyl]methoxy}-5-phenylpyrrolidine-2-carboxylic acid]",1 to 10 µM,< 1 µM,+++ (≥350),++ (≥100 and <200)
"COc1ccc(C(F)(F)F)cc1CO[C@H]1[C@H](C(C)(C)C)[C@@H](C(=O)O)N(C(=O)[C@@H]2CCC[C@@H](OC)C2)[C@H]1c1ccccc1 [Example 31, (2S,3R,4S,5S)-3-tert-butyl-1-[(1R,3R)-3-methoxycyclohexane-1-carbonyl]-4-{[2-methoxy-5-(trifluoromethyl)phenyl]methoxy}-5-phenylpyrrolidine-2-carboxylic acid]",1 to 10 µM,< 1 µM,+++ (≥350),+++ (≥200)
"COc1cc(C(F)(F)F)ccc1CO[C@H]1[C@H](C(C)(C)C)[C@@H](C(=O)O)N(C(=O)[C@H]2CCC[C@H](OC)C2)[C@H]1c1ccccc1 [Example 32, (2S,3R,4S,5S)-3-tert-butyl-1-[(1S,3S)-3-methoxycyclohexane-1-carbonyl]-4-{[2-methoxy-4-(trifluoromethyl)phenyl]methoxy}-5-phenylpyrrolidine-2-carboxylic acid]",1 to 10 µM,1 to 10 µM,+++ (≥350),+ (<100)
"COc1cc(C(F)(F)F)ccc1CO[C@H]1[C@H](C(C)(C)C)[C@@H](C(=O)O)N(C(=O)[C@@H]2CCC[C@@H](OC)C2)[C@H]1c1ccccc1 [Example 33, (2S,3R,4S,5S)-3-tert-butyl-1-[(1R,3R)-3-methoxycyclohexane-1-carbonyl]-4-{[2-methoxy-4-(trifluoromethyl)phenyl]methoxy}-5-phenylpyrrolidine-2-carboxylic acid]",1 to 10 µM,1 to 10 µM,+++ (≥350),++ (≥100 and <200)
"COc1ccc(Br)cc1CO[C@H]1[C@H](C(C)(C)C)[C@@H](C(=O)O)N(C(=O)OC(C)C)[C@H]1c1ccccc1 [Example 36, (2S,3R,4S,5S)-4-[(5-bromo-2-methoxyphenyl)methoxy]-3-tert-butyl-5-phenyl-1-{[(propan-2-yl)oxy]carbonyl}pyrrolidine-2-carboxylic acid]",1 to 10 µM,1 to 10 µM,+++ (≥350),++ (≥100 and <200)
